Test results reported in ChEMBL document CHEMBL4406843, “β-Amino acid derivatives as mitochondrial complex III inhibitors of L. donovani: A promising chemotype targeting visceral leishmaniasis” (Eur J Med Chem, 2019).
The source made the active and inactive calls. No cut-off for these calls is given here.

Legend:
J774 [1] = test: Immunostimulatory activity in mouse J774 cells infected with Leishmania donovani promastigotes assessed as reduction in IL-10 cytokine production at 50 uM after 48 hrs by ELISA; type: functional, cell-based
Leishmania donovani [2] = test: Induction of apoptosis in Leishmania donovani promastigotes assessed as necrotic cells at 50 uM after 48 hrs by Annexin-V/propidium iodide staining based flow cytometric method (reference value: 0.06%); type: functional
[3] = Intrinsic clearance in mouse liver microsomes after 1 hr in presence of NADPH by UPLC analysis; type: ADME, Microsome
[4] = AUC(0 to 24 hrs) in BALB/c mouse at 50 mg/kg, ip by HPLC analysis; type: ADME, organism-based; parameters: dose 50 mg/kg, time < 24 hr, route intraperitoneal; conditions: in vivo
[5] = Cytotoxicity against BALB/c mouse splenocytes assessed as cell viability at 100 uM after 72 hrs by MTT assay relative to control; type: cell-based, Splenocyte; conditions: read-out: Activity
[6] = Cytotoxicity against mouse J774 cells assessed as reduction in cell viability after 72 hrs by MTT assay; type: cell-based
[7] = Cytotoxicity against African green monkey Vero cells assessed as cell viability at 100 uM by MTT assay relative to control; type: cell-based; conditions: chlorocebus sabaeus, read-out: Activity
Leishmania donovani [8] = test: (§1) Antileishmanial activity against Leishmania donovani amastigotes infected in golden hamster assessed as reduction in parasite burden in liver at 50 mg/kg, ip administered on alternative days for 4 weeks starting at 4 weeks post-infection and measured after 2 week post last dose Giemsa staining-based assay relative to control; type: functional
[9] = Cytotoxicity against African green monkey Vero cells assessed as cell viability up to 100 uM after 72 hrs by MTT assay relative to control; type: cell-based; conditions: chlorocebus sabaeus, read-out: Activity
Leishmania donovani [10] = test: Induction of ROS generation in Leishmania donovani promastigotes at 50 uM after 12 hrs by H2DCFDA probe based flow cytometry (reference value: 1.97%); type: functional
Leishmania donovani [11] = test: Induction of membrane depolarization in Leishmania donovani promastigotes assessed as increase in fluorescence at IC50 by DiBAC4 dye based flow cytometry analysis; type: functional, organism-based; conditions: TDE = time-dependent effect
Leishmania donovani [12] = test: Induction of apoptosis in Leishmania donovani promastigotes assessed as early apoptotic cells at 50 uM after 24 hrs by Annexin-V/propidium iodide staining based flow cytometric method (reference value: 5.79%); type: functional
Leishmania donovani [13] = test: Induction of ROS generation in Leishmania donovani promastigotes at 50 uM after 6 hrs by H2DCFDA probe based flow cytometry (reference value: 1.97%); type: functional
Leishmania donovani [14] = test: Induction of apoptosis in Leishmania donovani promastigotes assessed as late apoptotic cells at 50 uM after 24 hrs by Annexin-V/propidium iodide staining based flow cytometric method (reference value: 0.59%); type: functional
[15] = Stability in mouse plasma at 10 ug/ml measured after 2 hrs by UPLC analysis relative to control; type: ADME, cell-free; conditions: read-out: Stability
Leishmania donovani [16] = test: Induction of mitochondrial membrane depolarization in Leishmania donovani promastigotes assessed as disruption of cristae at 50 uM after 24 hrs by TEM analysis; type: functional, organism-based
[17] = Half life in BALB/c mouse at 50 mg/kg, ip by HPLC analysis; type: ADME, organism-based; conditions: in vivo
Leishmania donovani [18] = test: as §1, with “spleen” for “liver”; type: functional
Leishmania donovani [19] = test: Induction of mitochondrial dysfunction in Leishmania donovani promastigotes assessed as reduction in mitochondrial membrane potential at 50 uM after 48 hrs by JC-1 staining-based flow cytometric analysis (reference value: 7.73%); type: functional; parameters: scale not given: the % may be the effect or the level left
Leishmania donovani [20] = test: Induction of apoptosis in Leishmania donovani promastigotes assessed as late apoptotic cells at 50 uM after 48 hrs by Annexin-V/propidium iodide staining based flow cytometric method (reference value: 0.59%); type: functional
Leishmania donovani [21] = test: Induction of ROS generation in Leishmania donovani promastigotes at 50 uM after 3 hrs by H2DCFDA probe based flow cytometry (reference value: 1.97%); type: functional
Leishmania donovani [22] = test: Inhibition of ubiquinol cytochrome c reductase in Leishmania donovani promastigotes mitochondria at 50 uM using decylubiquinol as substrate in presence of cytochrome c relative to control
[23] = Volume of distribution in BALB/c mouse at 50 mg/kg, ip by HPLC analysis; type: ADME, organism-based; conditions: in vivo
[24] = Toxicity in golden hamster infected with Leishmania donovani amastigotes assessed as effect on body weight at 12.5 to 200 mg/kg, ip administered on alternative days for 4 weeks starting at 4 weeks post-infection; type: organism-based, Mesocricetus auratus; conditions: in vivo, 672 h
[25] = Selectivity index, ratio of CC50 for mouse J774 cells to IC50 for antileishmanial activity against Leishmania donovani MHOM/IN/80/Dd8 amastigotes harboring luciferase reporter gene; type: toxicity; conditions: read-out: Ratio CC50/IC50
Leishmania donovani [26] = test: Induction of ROS generation in Leishmania donovani promastigotes at 50 uM after 48 hrs by H2DCFDA probe based flow cytometry (reference value: 1.97%); type: functional
Mus musculus = test: Immunostimulatory activity in BALB/c mouse infected with Leishmania donovani promastigotes assessed as induction of IL-2 cytokine production at 50 mg/kg administered for 5 days starting at 15 days post infection and measured after 3 to 7 weeks by ELISA; type: functional, organism-based
Leishmania donovani [27] = test: Induction of mitochondrial membrane depolarization in Leishmania donovani promastigotes assessed as swelling of mitochondria at 50 uM after 24 hrs by TEM analysis; type: functional, organism-based
Leishmania donovani [28] = test: Induction of plasma membrane permeabilization in Leishmania donovani promastigotes assessed as increase in fluorescence at 50 uM after 2 hrs by SYTOX green-based flow cytometry analysis relative to control; type: functional
[29] = Tmax in BALB/c mouse at 50 mg/kg, ip by HPLC analysis; type: ADME, organism-based; conditions: in vivo
[30] = Stability in simulated gastric fluid at 10 ug/ml measured after 2 hrs by UPLC analysis relative to control; type: ADME; conditions: read-out: Stability
J774 [31] = test: Immunostimulatory activity in mouse J774 cells infected with Leishmania donovani promastigotes assessed as increase in TNF-alpha cytokine production at 50 uM after 48 hrs by ELISA; type: functional, cell-based
Leishmania donovani [32] = test: Induction of ROS generation in Leishmania donovani promastigotes at 50 uM after 24 hrs by H2DCFDA probe based flow cytometry (reference value: 1.97%); type: functional
[33] = Stability in mouse liver microsomes assessed as compound remaining after 1 hr in presence of NADPH by UPLC analysis; type: ADME, Microsome; conditions: read-out: Stability
Leishmania donovani [34] = test: Antileishmanial activity against promastigote stage of Leishmania donovani MHOM/IN/80/Dd8 harboring luciferase reporter gene at 100 uM after 48 hrs by Steady-Glo luminescence assay relative to control; type: functional; conditions: MHOM/IN/80/Dd8, 48 h
Leishmania donovani [35] = test: Induction of mitochondrial dysfunction in Leishmania donovani promastigotes assessed as reduction in mitochondrial membrane potential at 50 uM after 24 hrs by JC-1 staining-based flow cytometric analysis (reference value: 7.73%); type: functional; parameters: scale not given: the % may be the effect or the level left
[36] = Toxicity in BALB/c mouse infected with Leishmania donovani promastigotes assessed as serum AST level at 50 mg/kg , ip measured after 3 to 7 weeks (reference value: 114 U/L); type: organism-based; conditions: in vivo
[37] = Toxicity in BALB/c mouse infected with Leishmania donovani promastigotes assessed as survival at 12.5 to 200 mg/kg, ip administered for 7 days starting at 15 days post-infection; type: organism-based; conditions: in vivo

CCOC(=O)C(C(=O)c1ccc(OC)cc1)C(NC(C)=O)c1cccc2ccccc12 (stereo not drawn)
Activity (J774 [1]): inactive
Activity (Leishmania donovani [2]): 0.11%
CLH [3]: 15 µL/min/mg
AUC(0-t) at 24 h [4]: 1280 ng·h/mL
viability at 72 h, 100 µM [5]: > 90.2%
CC50 at 72 h [6]: > 350 µM
viability at 100 µM [7]: 95.5%
inhibition in vivo at 50 mg/kg (Leishmania donovani [8]): 88.2%
viability at 72 h [9]: > 93%
Activity (Leishmania donovani [10]): 50.35%
Activity (Leishmania donovani [11]): Tde
Activity (Leishmania donovani [12]): 8.56%
Activity (Leishmania donovani [13]): 30.3%
Activity (Leishmania donovani [14]): 0.8%
remaining at 2 h, 10 ug/ml [15]: 81%
Activity (Leishmania donovani [16]): Active
half-life [17]: 5.11 h
inhibition in vivo at 50 mg/kg (Leishmania donovani [18]): 90.4%
Activity (Leishmania donovani [19]): 67.97%
Activity (Leishmania donovani [20]): 2.65%
Activity (Leishmania donovani [21]): 7.49%
inhibition (Leishmania donovani [22]): > 49%
Vd [23]: 301.51 L/kg
Activity [24]: Non-Toxic
selectivity ratio [25]: 23.4
Activity (Leishmania donovani [26]): 65.74%
Activity (Mus musculus): inactive
Activity (Leishmania donovani [27]): Active
Activity (Leishmania donovani [28]): 3.1%
Tmax [29]: 0.25 h
remaining at 2 h, 10 ug/ml [30]: 81.9%
Activity (J774 [31]): inactive
Activity (Leishmania donovani [32]): 85.54%
remaining at 1 h [33]: 86.9%
inhibition at 100 µM (Leishmania donovani [34]): 97.1%
Activity (Leishmania donovani [35]): 63.61%
Activity [36]: 54 to 298 IU/L
Activity [37]: Non-Toxic
